The record followed here is ChEMBL document CHEMBL1201862, “PubChem BioAssay data set” (2004).

Holding throughout (test): growth of human tumour cells (NCI), 48 h
For assay [1], the system named is Hs-578T.
Assay [2] concerns SN12C.
Assay [3] has as its system SF-268.
Assay [4] deals with 786-0.
In assay [5] the test system is RXF 393.
For assay [6], the system named is HOP-62.
The subject of assay [7] is OVCAR-3.
Assay [8] relates to HOP-92.
Assay [9] concerns UACC-257.
In assay [10] the test system is OVCAR-8.
Assay [11] deals with OVCAR-5.
Assay [12] deals with SF-539.
Assay [13] concerns SK-MEL-5.
Assay [14] concerns SK-MEL-2.
For assay [15], the system named is HL-60.
The subject of assay [16] is NCI-H226.
For assay [17], the system named is OVCAR-4.
Assay [18] relates to K562.
The subject of assay [19] is BT-549.

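Five compound concentrations were applied to cells in 96-well plates for 48 hours; endpoints were derived by simple linear interpolation of the resulting dose-response curve. Here, GI50 denotes the concentration required for 50% inhibition of growth.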 The source made the active and inactive calls. Cut-off read from the data, not from the text of the source: active = GI50 up to about 1.1 µM and inactive = higher. Some results are limits rather than exact numbers.

Take `COC(=O)c1ccc(CCc2cc(O)ccc2O)cc1`: the GI50 was 16.1 µM (inactive) in [1]; 7.98 µM (inactive) in assay [2]; 5.68 µM (inactive) in assay [3]; 5.47 µM (inactive) in [4]; 7.89 µM (inactive) in assay [5]; 12.2 µM (inactive) in assay [6]. Further, the GI50 in [7] is 2.96 µM (inactive); in [8], 9.25 µM (inactive); in assay [9] it was 13 µM (inactive); in [10], 2.85 µM (inactive); in assay [11] it was 19.2 µM (inactive); in assay [12] it was 3.66 µM (inactive). Further, the GI50 in assay [13] is 10.2 µM (inactive); in [14], 18.8 µM (inactive); in [15], 0.959 µM (active); in assay [16], 9.29 µM (inactive); in assay [17], 10.8 µM (inactive); in assay [18], 2.15 µM (inactive). Moreover, the GI50 in assay [19] is 5.7 µM (inactive).

For `c1ccc2c(c1)Oc1cccc3cccc-2c13`, the GI50 in assay [1], in [2], in [3], in [4], in assay [5] and in assay [6] was > 100 µM (inactive) throughout. Moreover, the GI50 is 42.3 µM (inactive) in [7]; > 100 µM (inactive) in assay [8]; > 100 µM (inactive) in assay [9]; > 100 µM (inactive) in [10]; > 100 µM (inactive) in assay [11]; > 100 µM (inactive) in [12]. In addition, the GI50 in assay [13], in assay [14], in assay [15], in assay [16], in assay [17] and in assay [18] was > 100 µM (inactive) in each case. The GI50 in assay [19] is > 100 µM (inactive).

As for `COc1ccc(N2C(=O)C3c4[nH]c5ccc(OCc6ccccc6)cc5c4C4CCC(C(C)C)CC4C3C2=O)cc1` (stereo not given), the GI50 is 2.29 µM (inactive) in assay [1]; > 100 µM (inactive) in assay [2]; 17.2 µM (inactive) in [3]; 8.11 µM (inactive) in [4]; 13.4 µM (inactive) in [5]; 8.63 µM (inactive) in assay [6]. For the same molecule, the GI50 is > 58.5 µM (inactive) in assay [7]; 32.1 µM (inactive) in [8]; > 100 µM (inactive) in assay [9]; 15.6 µM (inactive) in [10]; > 40 µM (inactive) in assay [11]; 6.03 µM (inactive) in assay [12]. Moreover, the GI50 in assay [13] was > 100 µM (inactive); in assay [14], 15.2 µM (inactive); in [15], 1.78 µM (inactive); in assay [16], 14.2 µM (inactive); in [17], 19.4 µM (inactive); in assay [18] it was 16.7 µM (inactive). In addition, the GI50 in assay [19] is 28.6 µM (inactive).

For `COCc1nc(N)nc(N2N=C(C)CC2(C)C)n1`, the GI50 in assay [1], in assay [2], in [3], in [4], in assay [5] and in assay [6] was > 100 µM (inactive) in each case. Moreover, the GI50 in assay [7], in [8], in assay [9], in assay [10], in [11] and in [12] was > 100 µM (inactive) each time. Further, the GI50 in assay [13], in assay [14], in assay [15], in [16], in assay [17] and in assay [18] was > 100 µM (inactive) each time. Also, the GI50 in assay [19] is > 100 µM (inactive).

As to `O=c1cc(-c2ccccc2)c2ccc(O)c(CN(CCCl)CCCl)c2o1`, the GI50 was 24.9 µM (inactive) in assay [1]; 17.2 µM (inactive) in assay [2]; 17.5 µM (inactive) in assay [3]; 18.5 µM (inactive) in assay [4]; 14 µM (inactive) in assay [5]; 17.2 µM (inactive) in [6]. The GI50 in [7] was 19.3 µM (inactive); in [8], 20.8 µM (inactive); in assay [9], 16.4 µM (inactive); in assay [10], 15.8 µM (inactive); in assay [11], 17.8 µM (inactive); in assay [12], 20.3 µM (inactive). For the same molecule, the GI50 in assay [13] is 16.9 µM (inactive); in assay [14], 22.8 µM (inactive); in assay [15], 13.4 µM (inactive); in [16], 17.9 µM (inactive); in assay [17], 34.8 µM (inactive); in [18] it was 29 µM (inactive). Moreover, the GI50 in assay [19] was 10.6 µM (inactive).

As for `CC1=NN(c2nc(N)nc(-c3cc4ccccc4oc3=N)n2)C(C)(C)C1`, the GI50 in assay [1] is 20.5 µM (inactive); in assay [2], 19.5 µM (inactive); in assay [3], 19.1 µM (inactive); in [4], 15.3 µM (inactive); in assay [5], 20.7 µM (inactive); in assay [6], 21.4 µM (inactive). Besides, the GI50 in assay [7] was 17.7 µM (inactive); in assay [8], 22.9 µM (inactive); in assay [9] it was 16.7 µM (inactive); in assay [10] it was 26.1 µM (inactive); in [11], 24.9 µM (inactive); in [12], 19.5 µM (inactive). The GI50 was 16.8 µM (inactive) in assay [13]; 20 µM (inactive) in assay [14]; 18.2 µM (inactive) in [15]; 14.7 µM (inactive) in [16]; 17.4 µM (inactive) in assay [17]; 18.9 µM (inactive) in [18]. Also, in assay [19], the GI50 is 26.7 µM (inactive).

On to `C=C1[C@@H](O)C[C@@]23CC[C@@H]4[C@@]5(C)CC[C@@H](OC(C)=O)C(C)(C)[C@@H]5C[C@@H](OC5OC(COC(C)=O)C(O)C(O)C5O)[C@@]4(C)C2=CC[C@H]3[C@H]1C` (stereo not given in full), for which the GI50 in [1] is 5.66 µM (inactive); in [2], 7.98 µM (inactive); in [3], 4.82 µM (inactive); in assay [4] it was 6.14 µM (inactive); in [5] it was 4.27 µM (inactive); in [6], 11.7 µM (inactive). For the same molecule, the GI50 was 3.72 µM (inactive) in [7]; 7.38 µM (inactive) in assay [8]; 11.6 µM (inactive) in [9]; 7.13 µM (inactive) in assay [10]; 2.22 µM (inactive) in assay [11]; 11.8 µM (inactive) in assay [12]. The GI50 in assay [13] is 4 µM (inactive); in assay [14], 2.34 µM (inactive); in assay [15], 2.27 µM (inactive); in [16] it was 4.43 µM (inactive); in assay [17], 5.57 µM (inactive); in assay [18], 2.99 µM (inactive). For the same molecule, the GI50 in assay [19] is 8.17 µM (inactive).

Consider `O=c1cc(/N=N\c2ccc(Br)cc2)[nH]c(=S)[nH]1`, for which the GI50 in [1] was 32.7 µM (inactive); in assay [2] it was 96.4 µM (inactive); in [3], 39.3 µM (inactive); in assay [4], 4.7 µM (inactive); in assay [5] it was 16.9 µM (inactive); in [6], > 100 µM (inactive). Moreover, the GI50 in [7] was 15.4 µM (inactive); in assay [8] it was 19.5 µM (inactive); in assay [9], 27 µM (inactive); in [10], 23.1 µM (inactive); in [11] it was 25.6 µM (inactive); in assay [12] it was 70.1 µM (inactive). Further, the GI50 in [13] was 57.1 µM (inactive); in assay [14] it was 11.9 µM (inactive); in assay [15] it was 19.3 µM (inactive); in assay [16] it was > 100 µM (inactive); in assay [17], 18.1 µM (inactive); in assay [18], 21.7 µM (inactive). For the same molecule, the GI50 in assay [19] is 56.6 µM (inactive).

In the case of `CCSCC(=O)N1CCc2c([nH]c3ccccc23)C1=O`, the GI50 was 23.2 µM (inactive) in assay [1]; > 100 µM (inactive) in assay [2]; > 100 µM (inactive) in assay [3]; > 100 µM (inactive) in assay [4]; > 100 µM (inactive) in [5]; > 100 µM (inactive) in assay [6]. Further, the GI50 in [7] was > 100 µM (inactive); in [8], 22.9 µM (inactive); in [9], 71.4 µM (inactive); in assay [10] it was > 100 µM (inactive); in assay [11], 91 µM (inactive); in assay [12] it was > 100 µM (inactive). For the same molecule, the GI50 in assay [13], in [14], in [15], in assay [16], in [17] and in assay [18] was > 100 µM (inactive) each time. Besides, the GI50 in assay [19] is > 100 µM (inactive).

As to `CCSC(=O)/C=C1\CN(C(=O)OC(C)(C)C)C1C(=O)OC(C)(C)C` (stereo not given), the GI50 in assay [1] was 4.17 µM (inactive); in [2] it was 1.86 µM (inactive); in assay [3], 4.32 µM (inactive); in [4] it was 1.87 µM (inactive); in [5] it was 1.91 µM (inactive); in assay [6], 14.1 µM (inactive). For the same molecule, the GI50 in assay [7] is 2.42 µM (inactive); in assay [8], 2.59 µM (inactive); in [9], 4.21 µM (inactive); in assay [10], 2.91 µM (inactive); in assay [11], 6.24 µM (inactive); in [12], 3.03 µM (inactive). For the same molecule, the GI50 was 3.37 µM (inactive) in assay [13]; 6.59 µM (inactive) in assay [14]; 1.87 µM (inactive) in assay [15]; 12.7 µM (inactive) in [16]; 2.38 µM (inactive) in [17]; 1.91 µM (inactive) in [18]. The GI50 in assay [19] was 10.3 µM (inactive).
